Data taken from the NIST ThermoML archive (doi:10.1016/j.jct.2016.01.028).

Test: xn = mol fraction of the nth substance listed
Settings: 102 kPa, Liquid; for speed of sound: Frequency=5 MHz, Single path-length method; for mass density: Vibrating tube method

CCCCC(=O)[O-].C[NH2+]CCO [2-hydroxy-N-methylethanaminium pentanoate] + O
Settings | mass density [kg/m3] | speed of sound [m/s]
298.15 K, x1 = 0.0199 | 1013 | 1645.3
298.15 K, x1 = 0.05 | 1026 | 1705.8
298.15 K, x1 = 0.0988 | 1027.5 | 1670.2
298.15 K, x1 = 0.2023 | 1029.9 | 1644.9
298.15 K, x1 = 0.3 | 1028.5 | 1633.5
298.15 K, x1 = 0.4053 | 1025.2 | 1609.2
298.15 K, x1 = 0.5003 | 1021 | 1583.7
298.15 K, x1 = 0.5993 | 1019.1 | 1571.3
298.15 K, x1 = 0.8061 | 1013.3 | 1541.8
298.15 K, x1 = 1 | 1009.3 | 1516.3
303.15 K, x1 = 0.0199 | 1009.6 | 1644.5
303.15 K, x1 = 0.05 | 1022.7 | 1698.6
303.15 K, x1 = 0.0988 | 1024.2 | 1659.8
303.15 K, x1 = 0.2023 | 1026.8 | 1631.5
303.15 K, x1 = 0.3 | 1025.4 | 1618.8
303.15 K, x1 = 0.4053 | 1022.1 | 1594.7
303.15 K, x1 = 0.5003 | 1017.8 | 1568.6
303.15 K, x1 = 0.5993 | 1015.9 | 1556.3
303.15 K, x1 = 0.8061 | 1010.1 | 1526.5
303.15 K, x1 = 1 | 1006 | 1503.7
308.15 K, x1 = 0.0199 | 1006.1 | 1643.7
308.15 K, x1 = 0.05 | 1019.3 | 1691.5
308.15 K, x1 = 0.0988 | 1020.9 | 1649.5
308.15 K, x1 = 0.2023 | 1023.7 | 1618.1
308.15 K, x1 = 0.3 | 1022.3 | 1604.2
308.15 K, x1 = 0.4053 | 1018.9 | 1580.2
308.15 K, x1 = 0.5003 | 1014.6 | 1553.5
308.15 K, x1 = 0.5993 | 1012.7 | 1541.4
308.15 K, x1 = 0.8061 | 1006.9 | 1511.2
308.15 K, x1 = 1 | 1002.8 | 1486.5
313.15 K, x1 = 0.0199 | 1002.7 | 1642.9
313.15 K, x1 = 0.05 | 1015.9 | 1684.3
313.15 K, x1 = 0.0988 | 1017.7 | 1639.1
313.15 K, x1 = 0.2023 | 1020.7 | 1604.8
313.15 K, x1 = 0.3 | 1019.2 | 1589.6
313.15 K, x1 = 0.4053 | 1015.8 | 1565.7
313.15 K, x1 = 0.5003 | 1011.5 | 1538.4
313.15 K, x1 = 0.5993 | 1009.5 | 1526.5
313.15 K, x1 = 0.8061 | 1003.6 | 1495.9
313.15 K, x1 = 1 | 999.6 | 1471
318.15 K, x1 = 0.0199 | 999.3 | 1642.2
318.15 K, x1 = 0.05 | 1012.6 | 1677.2
318.15 K, x1 = 0.0988 | 1014.4 | 1628.8
318.15 K, x1 = 0.2023 | 1017.6 | 1591.4
318.15 K, x1 = 0.3 | 1016.1 | 1575
318.15 K, x1 = 0.4053 | 1012.7 | 1551.2
318.15 K, x1 = 0.5003 | 1008.3 | 1523.3
318.15 K, x1 = 0.5993 | 1006.3 | 1511.5
318.15 K, x1 = 0.8061 | 1000.4 | 1480.6
318.15 K, x1 = 1 | 996.3 | 1457
323.15 K, x1 = 0.0199 | 995.8 | 1641.4
323.15 K, x1 = 0.05 | 1009.2 | 1670
323.15 K, x1 = 0.0988 | 1011.1 | 1618.5
323.15 K, x1 = 0.2023 | 1014.6 | 1578
323.15 K, x1 = 0.3 | 1012.9 | 1560.4
323.15 K, x1 = 0.4053 | 1009.5 | 1536.7
323.15 K, x1 = 0.5003 | 1005.1 | 1508.2
323.15 K, x1 = 0.5993 | 1003.1 | 1496.6
323.15 K, x1 = 0.8061 | 997.2 | 1465.3
323.15 K, x1 = 1 | 993.1 | 1440
328.15 K, x1 = 0.0199 | 992.4 | 1640.6
328.15 K, x1 = 0.05 | 1005.9 | 1662.8
328.15 K, x1 = 0.0988 | 1007.8 | 1608.1
328.15 K, x1 = 0.2023 | 1011.5 | 1564.6
328.15 K, x1 = 0.3 | 1009.8 | 1545.7
328.15 K, x1 = 0.4053 | 1006.4 | 1522.2
328.15 K, x1 = 0.5003 | 1002 | 1493.1
328.15 K, x1 = 0.5993 | 999.9 | 1481.7
328.15 K, x1 = 0.8061 | 993.9 | 1450
328.15 K, x1 = 1 | 989.9 | 1424.6
333.15 K, x1 = 0.0199 | 988.9 | 1639.8
333.15 K, x1 = 0.05 | 1002.5 | 1655.7
333.15 K, x1 = 0.0988 | 1004.5 | 1597.8
333.15 K, x1 = 0.2023 | 1008.5 | 1551.2
333.15 K, x1 = 0.3 | 1006.7 | 1531.1
333.15 K, x1 = 0.4053 | 1003.2 | 1507.7
333.15 K, x1 = 0.5003 | 998.8 | 1478.1
333.15 K, x1 = 0.5993 | 996.7 | 1466.7
333.15 K, x1 = 0.8061 | 990.7 | 1434.6
333.15 K, x1 = 1 | 986.7 | 1412.8

CCCC(=O)[O-].C[NH2+]CCO [N-methyl-2-hydroxyethylammonium butanoate] + O
Settings | mass density [kg/m3] | speed of sound [m/s]
298.15 K, x1 = 0.0199 | 1016.9 | 1645.6
298.15 K, x1 = 0.0497 | 1035 | 1762.6
298.15 K, x1 = 0.1005 | 1040.8 | 1773.4
298.15 K, x1 = 0.196 | 1050.5 | 1739.5
298.15 K, x1 = 0.3008 | 1052.5 | 1732
298.15 K, x1 = 0.4005 | 1049.1 | 1693.9
298.15 K, x1 = 0.509 | 1046.8 | 1674.1
298.15 K, x1 = 0.5968 | 1045 | 1659.6
298.15 K, x1 = 0.8069 | 1041.3 | 1630.4
298.15 K, x1 = 1 | 1035.3 | 1562.9
303.15 K, x1 = 0.0199 | 1013.1 | 1646.1
303.15 K, x1 = 0.0497 | 1032.4 | 1755.1
303.15 K, x1 = 0.1005 | 1037.9 | 1763.6
303.15 K, x1 = 0.196 | 1047.4 | 1725.4
303.15 K, x1 = 0.3008 | 1049.4 | 1717
303.15 K, x1 = 0.4005 | 1046 | 1678.1
303.15 K, x1 = 0.509 | 1043.6 | 1658.3
303.15 K, x1 = 0.5968 | 1041.7 | 1643.9
303.15 K, x1 = 0.8069 | 1038 | 1614.5
303.15 K, x1 = 1 | 1031.9 | 1548
308.15 K, x1 = 0.0199 | 1009.2 | 1646.7
308.15 K, x1 = 0.0497 | 1029.8 | 1747.6
308.15 K, x1 = 0.1005 | 1035 | 1753.8
308.15 K, x1 = 0.196 | 1044.4 | 1711.3
308.15 K, x1 = 0.3008 | 1046.3 | 1701.9
308.15 K, x1 = 0.4005 | 1042.8 | 1662.3
308.15 K, x1 = 0.509 | 1040.4 | 1642.4
308.15 K, x1 = 0.5968 | 1038.5 | 1628.1
308.15 K, x1 = 0.8069 | 1034.7 | 1598.6
308.15 K, x1 = 1 | 1028.6 | 1529.7
313.15 K, x1 = 0.0199 | 1005.3 | 1647.3
313.15 K, x1 = 0.0497 | 1027.2 | 1740
313.15 K, x1 = 0.1005 | 1032 | 1744
313.15 K, x1 = 0.196 | 1041.3 | 1697.2
313.15 K, x1 = 0.3008 | 1043.2 | 1686.8
313.15 K, x1 = 0.4005 | 1039.6 | 1646.5
313.15 K, x1 = 0.509 | 1037.2 | 1626.6
313.15 K, x1 = 0.5968 | 1035.3 | 1612.4
313.15 K, x1 = 0.8069 | 1031.4 | 1582.7
313.15 K, x1 = 1 | 1025.2 | 1511.9
318.15 K, x1 = 0.0199 | 1001.5 | 1647.8
318.15 K, x1 = 0.0497 | 1024.6 | 1732.5
318.15 K, x1 = 0.1005 | 1029.1 | 1734.2
318.15 K, x1 = 0.196 | 1038.3 | 1683.1
318.15 K, x1 = 0.3008 | 1040.1 | 1671.7
318.15 K, x1 = 0.4005 | 1036.4 | 1630.6
318.15 K, x1 = 0.509 | 1034 | 1610.7
318.15 K, x1 = 0.5968 | 1032.1 | 1596.6
318.15 K, x1 = 0.8069 | 1028.1 | 1566.8
318.15 K, x1 = 1 | 1021.9 | 1499.4
323.15 K, x1 = 0.0199 | 997.6 | 1648.4
323.15 K, x1 = 0.0497 | 1022 | 1725
323.15 K, x1 = 0.1005 | 1026.2 | 1724.5
323.15 K, x1 = 0.196 | 1035.2 | 1669
323.15 K, x1 = 0.3008 | 1036.9 | 1656.6
323.15 K, x1 = 0.4005 | 1033.3 | 1614.8
323.15 K, x1 = 0.509 | 1030.9 | 1594.8
323.15 K, x1 = 0.5968 | 1028.9 | 1580.8
323.15 K, x1 = 0.8069 | 1024.9 | 1550.9
323.15 K, x1 = 1 | 1018.5 | 1481.3
328.15 K, x1 = 0.0199 | 993.7 | 1648.9
328.15 K, x1 = 0.0497 | 1019.4 | 1717.5
328.15 K, x1 = 0.1005 | 1023.2 | 1714.7
328.15 K, x1 = 0.196 | 1032.2 | 1654.9
328.15 K, x1 = 0.3008 | 1033.8 | 1641.6
328.15 K, x1 = 0.4005 | 1030.1 | 1599
328.15 K, x1 = 0.509 | 1027.7 | 1579
328.15 K, x1 = 0.5968 | 1025.6 | 1565.1
328.15 K, x1 = 0.8069 | 1021.6 | 1535
328.15 K, x1 = 1 | 1015.2 | 1467.2
333.15 K, x1 = 0.0199 | 989.9 | 1649.5
333.15 K, x1 = 0.0497 | 1016.8 | 1709.9
333.15 K, x1 = 0.1005 | 1020.3 | 1704.9
333.15 K, x1 = 0.196 | 1029.1 | 1640.8
333.15 K, x1 = 0.3008 | 1030.7 | 1626.5
333.15 K, x1 = 0.4005 | 1026.9 | 1583.1
333.15 K, x1 = 0.509 | 1024.5 | 1563.1
333.15 K, x1 = 0.5968 | 1022.4 | 1549.3
333.15 K, x1 = 0.8069 | 1018.3 | 1519.1
333.15 K, x1 = 1 | 1011.9 | 1451.2
